Consider one compound from paper PMC6934184, “Selective DNA-PKcs inhibition extends the therapeutic index of localized radiotherapy and chemotherapy” (The Journal of Clinical Investigation, 2019).

In the test the target is T1, MST1R (RON) (Homo sapiens, UniProt Q04912).
T1 construct: purchased Thermo Fisher Scientific (Life Technologies) SelectScreen
In words: SelectScreen Z'LYTE. Type of test: biochemical. The procedure, abridged:
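Percent values come from Thermo SelectScreen profiling of NU5455, combining activity and binding assays. CSF1R was run in Z'LYTE format at Km app ATP, and CAMK1 in Adapta format with ATP listed at 10.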

T1 sequence (Q04912 25-1400): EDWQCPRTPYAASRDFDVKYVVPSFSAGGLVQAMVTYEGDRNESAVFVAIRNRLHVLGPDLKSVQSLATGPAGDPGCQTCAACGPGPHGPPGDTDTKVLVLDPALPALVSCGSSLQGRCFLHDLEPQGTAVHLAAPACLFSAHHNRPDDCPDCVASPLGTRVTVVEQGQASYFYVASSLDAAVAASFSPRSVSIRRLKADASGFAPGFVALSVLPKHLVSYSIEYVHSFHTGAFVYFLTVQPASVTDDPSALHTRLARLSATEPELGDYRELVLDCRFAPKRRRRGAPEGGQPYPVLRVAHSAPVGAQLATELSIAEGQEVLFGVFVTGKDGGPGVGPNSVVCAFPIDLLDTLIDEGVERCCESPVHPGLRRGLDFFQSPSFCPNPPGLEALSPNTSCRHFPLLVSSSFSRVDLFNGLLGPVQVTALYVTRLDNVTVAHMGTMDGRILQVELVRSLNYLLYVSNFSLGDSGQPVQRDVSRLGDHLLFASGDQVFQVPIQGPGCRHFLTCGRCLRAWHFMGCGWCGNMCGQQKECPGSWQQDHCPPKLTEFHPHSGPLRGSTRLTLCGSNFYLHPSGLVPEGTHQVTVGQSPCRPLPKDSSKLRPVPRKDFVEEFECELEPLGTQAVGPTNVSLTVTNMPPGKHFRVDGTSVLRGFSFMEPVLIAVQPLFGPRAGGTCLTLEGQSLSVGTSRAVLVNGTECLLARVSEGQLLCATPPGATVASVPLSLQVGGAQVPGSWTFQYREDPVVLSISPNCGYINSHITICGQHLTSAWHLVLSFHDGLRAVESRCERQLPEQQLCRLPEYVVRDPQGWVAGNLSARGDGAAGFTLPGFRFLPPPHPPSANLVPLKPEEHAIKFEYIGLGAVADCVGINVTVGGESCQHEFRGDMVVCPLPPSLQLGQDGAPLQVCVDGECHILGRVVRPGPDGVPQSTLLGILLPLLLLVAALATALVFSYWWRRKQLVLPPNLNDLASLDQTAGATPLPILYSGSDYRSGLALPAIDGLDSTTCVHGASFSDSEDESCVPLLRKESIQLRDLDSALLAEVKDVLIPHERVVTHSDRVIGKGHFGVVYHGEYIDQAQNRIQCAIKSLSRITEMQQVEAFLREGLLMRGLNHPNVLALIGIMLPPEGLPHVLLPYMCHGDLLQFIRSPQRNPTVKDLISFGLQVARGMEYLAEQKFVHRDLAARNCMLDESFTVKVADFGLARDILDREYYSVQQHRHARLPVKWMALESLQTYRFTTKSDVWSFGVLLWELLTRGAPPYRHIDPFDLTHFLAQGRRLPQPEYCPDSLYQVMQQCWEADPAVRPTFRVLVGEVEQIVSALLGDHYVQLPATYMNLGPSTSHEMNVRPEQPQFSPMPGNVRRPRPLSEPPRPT

With `CN(C(=O)CN1CCOCC1)c1ccc2sc3c(-c4cccc5c(=O)cc(N6CC7CCC(C6)O7)oc45)cccc3c2c1` [NU5455], the inhibition at 1 µM was -13.4%.

As usually defined, the inhibition is the change of the read-out against control, counted positive when it falls.
